The values below come from PMC3560935 (Anesthesiology, 2011).

“Also recorded” adds a separate entry of the source.

The target of data set [1] is human nociceptin receptor (Homo sapiens, UniProt P41146). The data set is classed as binding.
The subject of data set [2] is Swiss-Webster mice. To be noted: mouse, in vivo.
The subject of data set [3] is Swiss-Webster mice. To be noted: mouse, in vivo. This is another data set of the same source.
Data set [4] concerns Swiss-Webster mice. To be noted: mouse, in vivo. The source holds these as a separate data set.
The conditions of data set [5]: mouse, in vivo.
The conditions of data set [6]: administered intracerebroventricularly; cited from earlier work.

human nociceptin receptor, sequence (P41146 whole entry): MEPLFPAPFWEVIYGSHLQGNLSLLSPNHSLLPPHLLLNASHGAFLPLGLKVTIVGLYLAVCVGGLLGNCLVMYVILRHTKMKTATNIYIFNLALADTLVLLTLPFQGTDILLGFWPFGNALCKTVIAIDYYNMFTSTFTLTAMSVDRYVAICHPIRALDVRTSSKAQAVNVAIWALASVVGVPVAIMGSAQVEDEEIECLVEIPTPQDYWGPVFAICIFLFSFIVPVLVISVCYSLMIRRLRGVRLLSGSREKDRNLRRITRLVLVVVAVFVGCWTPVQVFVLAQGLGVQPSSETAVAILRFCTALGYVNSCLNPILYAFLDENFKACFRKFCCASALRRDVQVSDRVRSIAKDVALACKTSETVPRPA

`CO[C@]12CC[C@@]3(C[C@@H]1[C@](C)(O)C(C)(C)C)[C@H]1Cc4ccc(O[C@@H]5O[C@H](C(=O)O)[C@@H](O)[C@H](O)[C@H]5O)c5c4[C@@]3(CCN1CC1CC1)[C@H]2O5` [Buprenorphine-3-glucuronide, buprenorphine-3-glucuronide]: the Ki in data set [1] (read-out: apparent Ki, Nociceptin) is 36 ± 0.3 µM. Moreover, in the data set on Swiss-Webster mice [2], the “antinociceptive effect (in words)” value was “small antinociceptive effect; also recorded: mild antinociceptive activity”. Also, in the data set with Swiss-Webster mice [3], the “effect on minute ventilation (in words)” value was “Neither buprenorphine nor B3G affected” and the “effect on respiratory rate (in words)” value was “Neither B3G nor N3G had a significant effect”. In the data set on Swiss-Webster mice [4], the “total locomotor activity compared to control / sedation (in words)” value was “did not cause a decrease”. In data set [5], the “Concentration, Brain Homogenate” value is 1.4 ± 0.7 ng/mL and the “Concentration, Plasma” value was found to be 133 ± 44 ng/mL.
On to `CN1CC[C@]23c4c5ccc(O)c4O[C@H]2[C@@H](O[C@@H]2O[C@H](C(=O)O)[C@@H](O)[C@H](O)[C@H]2O)C=C[C@H]3[C@H]1C5` [Morphine-6-glucuronide], for which the “potency relative to morphine” value in data set [6] was 300 times.
With Buprenorphine, the “affinity for the nociceptin receptor (in words)” value in data set [1] is on record as “low affinity”. Besides, in the data set with Swiss-Webster mice [2], the “dose with the greatest analgesic response” value worked out at 0.3 mg/kg, the “time to onset of antinociception” value was 30 min and the “time to peak antinociceptive effect” value is given as 45 min.
